Measured values taken from patent US20260345555A1, “Compositions and Methods for Protecting Salivary Glands from Off-Target Radiation Damage” (University of Rochester, priority 2022, published 2026).
Structures can show the parent of a compound that is named as a salt.

tested on: senescence-associated β-galactosidase in salivary gland cell clusters (SGm); assay: Cellular senescence assay (SPiDER-βGal) in salivary gland tissue chip, 5 days post-radiation (15 Gy); also second screen of library hits at 100 μM; type: cell-based, mouse; settings: glutathione and senescence assays, 100 μM, statistically similar to 0 Gy
Description: (§1) The chip platform consists of an array of near-spherical microbubble (MB) cavities formed in poly(dimethylsiloxane) (PDMS). Each chip, containing ~50 MBs, affixed within wells of a 96-well plate (FIG. 1C). Primary salivary gland cell clusters (FIG. 1A), suspended in a poly(ethylene glycol) (PEG) hydrogel precursor and MMP-degradable peptide crosslinker solution together with the photoinitiator LAP, were applied to the chip allowing the clusters to deposit into the MBs (FIG. 1D). In situ polymerization of the hydrogel was achieved using long-wave, low intensity UV light. Over time, the cell clusters aggregate and proliferate to form SGm (FIG. 1C).
For senescence, a protocol similar to the glutathione assay was followed to determine the optimal time point post-radiation for detecting a change in senescence between 0 Gy and 15 Gy, as measured by senescence-associated β-galactosidase activity.
The glutathione and senescence assays were used to screen a library of FDA-approved drugs (Selleck Chemicals) at 100 μM. Drugs were first screened using the glutathione assay according to the timeline depicted in FIG. 2A. […] Hits with the glutathione assay were then tested with the senescence assay and considered a “double hit” if senescence levels were statistically similar to levels at 0 Gy (FIG. 4, black circles).
Mice were euthanized and the submandibular glands (SMG) were removed and chopped with a razor blade for 5 min. […] Cells were centrifuged, then resuspended in HBSS with 15 mM HEPES and passed through 100 μm and 20 μm mesh filters to isolate clusters between 20-100 μm. […] The isolated clusters were combined with hydrogel precursor solution and seeded in MB array-based chips as described below.
The cell/gel precursor solution (25 μL for 48 well; 20 μL for 96 well) was pipetted onto the MB chips and incubated for 30 min, pipetting every 10 min to redisperse cells that had settled onto the surface of the chip.
A cellular senescence assay for the chips was developed by adapting the Cellular Senescence Detection Kit—SPiDER-βGal (Dojindo Molecular Technologies, Inc. SG04). Bafilomycin A1 and SPiDER-βGal stock solutions were prepared in DMSO per manufacturer directions. The assay was performed by first incubating the chips with bafilomycin A1 (1:1000 dilution in media) for 1 hr at 37 °C. […] Chips were washed twice with media and imaged using a fluorescence microscope with a Texas Red filter (Excitation: 580 nm; Emission: 604 nm).
For radioprotection experiments, SGm were cultured in MB-hydrogel chips for 4 days, then drugs were added to the chips 30 min prior to irradiation and washed out with media 30 min post-radiation treatment. […] The glutathione and senescence assays were performed at 4- and 5-days post-radiation. For assay validation experiments, at least 3 chips (N=3) were used for each drug, corresponding to >100 MBs (n>100); these values are listed in the figure description for each experiment. Mean, standard deviation, and statistics were calculated based on the number of MBs (n).
For screening of the Selleck Chemicals compound library, the same treatment scheme was used, with drugs administered at 100 μM. One MB chip (N=1) was used per compound, with ~40-50 MBs per chip […]; statistics were calculated using the number of MBs (n) and compared to 0 Gy controls.
For both the glutathione and cellular senescence assays, images were quantified in ImageJ.

Row | Molecule | double hit in the drug screen
1 | CO[C@H]1/C=C/O[C@@]2(C)Oc3c(C)c(O)c4c(c3C2=O)C2=NC3(CCN(CC(C)C)CC3)NC2=C(NC(=O)/C(C)=C\C=C\[C@H](C)[C@H](O)[C@@H](C)[C@@H](O)[C@@H](C)[C@H](OC(C)=O)[C@@H]1C)C4=O [Rifabutin (Mycobutin)] | double hits
2 | CO[C@H]1/C=C/O[C@@]2(C)Oc3c(C)c(O)c4c(O)c(c(/C=N/N5CCN(C)CC5)c(O)c4c3C2=O)NC(=O)/C(C)=C\C=C\[C@H](C)[C@H](O)[C@@H](C)[C@@H](O)[C@@H](C)[C@H](OC(C)=O)[C@@H]1C [Rifampin] | double hits

same assay, conditions: second screen of library hits at 100 μM, 15 Gy, 5 days post-radiation; only drugs nonsignificant compared to 0 Gy in the glutathione assay

Row | Molecule | Senescence normalized mean intensity
3 | CC(=O)OCC[N+](C)(C)C.[Cl-] [Acetylcholine chloride] | 1.205
4 | Cc1cnc(C(=O)O)c[n+]1[O-] [Acipimox] | 1.379
5 | NC(N)=NC(=O)c1nc(Cl)c(N)nc1N [Amiloride hydrochloride (Midamor)] | 1.487

tested on: Reduced glutathione in salivary gland cell clusters (SGm); assay: Glutathione assay in salivary gland tissue chip, 4 days post-radiation (15 Gy); also first screen of Selleck library at 100 μM; type: cell-based, mouse; settings: first screen of Selleck library at 100 μM, 15 Gy, 4 days post-radiation
Description: as §1, with “A salivary gland tissue chip was leveraged for high-content drug screening to identify novel radioprotective compounds (Song Y et al., Commun Biol., 2021, 4). The” for “The”
The glutathione assay was used to measure glutathione levels at various time points post-radiation to determine the optimal time point for detecting differences between 0 Gy and 15 Gy. Based on the data, the greatest signal separation was measured at 4 days post-irradiation (FIG. 9). This timepoint is similar to previous reports on decreases in glutathione post-radiation and was used for all experiments moving forward (Meeks L et al., Physiological Genomics, 2021, 53: 85-98).
The dose response to WR-1065 was examined to determine effective concentrations of WR-1065 to prevent the reduction of glutathione levels post-radiation. A SGm tissue chip was cultured for 4 days to allow spheres to form. The chip was then treated with WR-1065 30 minutes before and during radiation, followed by drug wash out with media 30 minutes post-radiation (FIG. 2A). This dosing scheme is consistent with the use of Amifostine clinically and with previous work. The glutathione assay was performed at 4 days post-radiation (FIG. 2A). […] Moreover, it is clinically relevant as 15-30 minutes before radiation, patients are administered Amifostine intravenously at 200 mg/m (Escobar A et al., IntechOpen, 2019, pp. 15-37; Eisbruch A, J Clin Oncol, 2011, 29: 119-121; Bardet, E. et al. Semin Oncol, 2002, 29, 57-60). Assuming an average adult body surface area of 17,000 cm^2 and a blood volume of 1.35 gallons (5.1 liters), Amifostine is administered at 300 μM (Mosteller, R. D. N Engl J Med 317, 1098 (1987)).
The glutathione and senescence assays were used to screen a library of FDA-approved drugs (Selleck Chemicals) at 100 μM. Drugs were first screened using the glutathione assay according to the timeline depicted in FIG. 2A. Any compound resulting in statistically similar glutathione levels compared to 0 Gy control was considered a hit (FIG. 4, grey circles). Hits with the glutathione assay were then tested with the senescence assay and considered a “double hit” if senescence levels were statistically similar to levels at 0 Gy (FIG. 4, black circles). […] While this hit rate is higher than many other drug screening reports (0.1-0.3%), this may be due to the statistical rigor afforded by the tissue chip format (Blanchard, C et al., Antimicrob Agents Chemother 2016, 60, 862-872; Colquhoun, J. M et al., Antibiotics (Basel) 2019, 8, 48). Additionally, phenotypic screens generally have higher hit rates than target-based screens (>1%) (Moffat, J. G et al., Nature Reviews Drug Discovery 2017, 16, 531-543; Rottman, M et al., Science 2010, 329, 1175-1180).
Mice were euthanized and the submandibular glands (SMG) were removed and chopped with a razor blade for 5 min. The tissue was then incubated in Hank's buffered salt solution (HBSS) containing 15 mM HEPES, 50 U/mL collagenase type II (Thermo Fischer 17101015), and 100 U/mL hyaluronidase (Sigma Aldrich H3506) at 37 °C for 30 min. Cells were centrifuged, then resuspended in HBSS with 15 mM HEPES and passed through 100 μm and 20 μm mesh filters to isolate clusters between 20-100 μm. The digestion protocol produces cell cluster sizes evenly distributed between 20 to 100 μm (Song, Y et al., Advanced Healthcare Materials). […]

Row | Molecule | Glutathione normalized mean intensity
6 | CC(=O)OCC[N+](C)(C)C.[Cl-] [Acetylcholine chloride] | 1.04
7 | Cc1cnc(C(=O)O)c[n+]1[O-] [Acipimox] | 1.03
8 | NC(N)=NC(=O)c1nc(Cl)c(N)nc1N [Amiloride hydrochloride (Midamor)] | 1.018
9 | CC(=O)[C@H]1CC[C@H]2[C@@H]3CC=C4C[C@@H](O)CC[C@]4(C)[C@H]3CC[C@]12C [Pregnenolone] | 0.6057
10 | CCC1(c2ccccc2)C(=O)NCNC1=O [Primidone (Mysoline)] | 0.8725
11 | CCCOc1ccc(C(=O)OCCN(CC)CC)cc1N [Proparacaine HCl] | 0.7045
12 | CCCc1cc(C(N)=S)ccn1 [Protionamide (Prothionamide)] | 0.6328
13 | CCOC(=O)[C@H](CCc1ccccc1)N[C@@H](C)C(=O)N1[C@H](C(=O)O)C[C@@H]2CCC[C@@H]21 [Ramipril (Altace)] | 0.7145
14 | CNC(=C[N+](=O)[O-])NCCSCc1ccc(CN(C)C)o1 [Ranitidine (Zantac)] | 0.4295
15 | COc1ccccc1OCC(O)CN1CCN(CC(=O)Nc2c(C)cccc2C)CC1 (stereo not drawn) [Ranolazine (Ranexa)] | 0.5015
16 | CO[C@H]1/C=C/O[C@@]2(C)Oc3c(C)c(O)c4c(O)c(c5c(nc6cc(C)ccn65)c4c3C2=O)NC(=O)/C(C)=C\C=C\[C@H](C)[C@H](O)[C@@H](C)[C@@H](O)[C@@H](C)[C@H](OC(C)=O)[C@@H]1C [Rifaximin (Xifaxan)] | 0.3977
17 | CC(N)C12CC3CC(CC(C3)C1)C2 (stereo not drawn) [Rimantadine (Flumadine)] | 0.3987
18 | O=P(O)(O)C(O)(Cc1cccnc1)P(=O)(O)O [Risedronic acid (Actonel)] | 0.6565
19 | CC(=O)OCC(=O)NCCCOc1cccc(CN2CCCCC2)c1 [Roxatidine acetate HCl] | 0.4245
20 | CCC(C)(C)C(=O)O[C@H]1C[C@@H](C)C=C2C=C[C@H](C)[C@H](CC[C@@H]3C[C@@H](O)CC(=O)O3)[C@H]21 [Simvastatin (Zocor)] | 0.1568
21 | C[C@@H]1CN(c2c(F)c(N)c3c(=O)c(C(=O)O)cn(C4CC4)c3c2F)C[C@H](C)N1 [Sparfloxacin] | 0.7607

Row | Molecule | Glutathione normalized mean intensity
22 | CC1(C)[C@H](C(=O)O)N2C(=O)C[C@H]2S1(=O)=O [Sulbactam] | 0.6491
23 | Cc1nnc(NS(=O)(=O)c2ccc(N)cc2)s1 [Sulfamethizole (Proklar)] | 0.4719
24 | Cc1cc(NS(=O)(=O)c2ccc(N)cc2)no1 [Sulfamethoxazole] | 0.8442
25 | COc1cc(NS(=O)(=O)c2ccc(N)cc2)nc(OC)n1 [Sulphadimethoxine] | 0.8846
26 | COc1cc([C@@H]2c3cc4c(cc3[C@@H](O[C@@H]3O[C@@H]5CO[C@@H](c6cccs6)O[C@H]5[C@H](O)[C@H]3O)[C@H]3COC(=O)[C@H]23)OCO4)cc(OC)c1O [Teniposide (Vumon)] | 0.4095
27 | Clc1ccc(C(Cn2ccnc2)OCc2ccsc2Cl)c(Cl)c1 (stereo not drawn) [Tioconazole] | 0.6333
28 | Cc1c(Cl)cccc1Nc1ccccc1C(=O)O [Tolfenamic acid] | 0.8008
29 | NCC1CCC(C(=O)O)CC1 (stereo not drawn) [Tranexamic acid (Transamin)] | 0.7568
30 | O=c1[nH]c(=O)n([C@H]2C[C@H](O)[C@@H](CO)O2)cc1C(F)(F)F [Trifluridine (Viroptic)] | 0.7468
31 | CN1[C@@H]2CC[C@H]1C[C@@H](OC(=O)c1c[nH]c3ccccc13)C2 [Tropisetron] | 0.5993
32 | CC(C)[C@H](N)C(=O)OCCOCn1cnc2c(=O)[nH]c(N)nc21 [Valaciclovir HCl] | 0.6362
33 | CCCCC(=O)N(Cc1ccc(-c2ccccc2-c2nn[nH]n2)cc1)[C@H](C(=O)O)C(C)C [Valsartan (Diovan)] | 0.6351
34 | Nc1ncnc2c1ncn2[C@@H]1O[C@H](CO)[C@@H](O)[C@@H]1O [Vidarabine (Vira-A)] | 0.3742
35 | Bacitracin zinc | 0.6175
36 | Vitamin B12 | 0.7029
